Data as given in US20250129083A1, “IMIDAZOTETRAZINE COMPOUNDS AND TREATMENT OF TMZ-RESISTANT CANCERS” (THE BOARD OF TRUSTEES OF THE UNIVERSITY OF ILLINOIS, priority 2022, published 2025).

Assays:
U87 cells = test: Killing kinetics study; assay type: cell-based, human
Experimental: FIG. 2A-F. (A) 7 day IC50 values (M) of compound 10 and CPZ in an expanded panel of GBM cell lines. Cell viability was assessed via the Alamar Blue assay, n≥3, error is SEM. (B-E) 7 day dose-response curves of TMZ and CPZ in cell lines with variable MGMT and MMR status. Error is SEM, n≥3. (F) Killing kinetics of CPZ compared to TMZ in the U87 cell line. Cells were treated with compound once and viability was assessed every 24 hours via Alamar Blue assay. Error is SEM, n≥2.
Killing Kinetics Study. U87 cells were seeded in seven 96 well plates starting at 19,200 cells/well (for 24 hour time point) and serially diluted by two-fold for each subsequent 24 hour time point. At each time point, cell viability was assessed via Alamar Blue assay.

[1] = test system: genomic DNA of GL261 cells; test: Quantitation of O6-guanine DNA adducts in cells, GL261; assay type: cell-based, mouse; conditions: 100, 300, or 500 μM, 8 hours; LC-MS/MS
Experimental: Importantly, because CPZ was designed to release a different active species than TMZ, the alkylation pattern in a cellular context is likely different. Therefore, to assess if alkylation still occurs with CPZ, a DNA alkylation assay was performed. GL261 cells were treated with 100, 300, or 500 μM TMZ or CPZ for 8 hours after which the cells were harvested and genomic DNA was extracted and subsequently hydrolyzed to constituent deoxyribonucleosides. LC-MS/MS analysis was employed to quantify the amount of O^6-methyl-2′-deoxyguanosine (O^6-Me-dG) or O^6-propargylated-2′-O^6-deoxyguanosine (O^6-Prop-dG) in each sample.
Quantitation of O^6-guanine DNA Adducts in Cells. GL261, A172, or D54 cells were plated at 1×10^6 c/w in a 6-well plate before they were treated with compound at the indicated concentration (1% final concentration DMSO). After incubation for the indicated time, the cells were harvested and pelleted. Genomic DNA was extracted using the DNeasy Blood & Tissue Kit (Qiagen, ID: 69504). DNA was then precipitated using the following procedure: 1/10 v/v […] sodium acetate (pH 5.2) and 2.5× v/v ethanol was added to each sample which was then kept at −80° C. for 1 h. […] Hydrolyzed samples were then submitted for LC-MS/MS quantitation along with a synthetic standard. Samples were analyzed with a 5500 QTRAP LC/MS/MS system (AB Sciex) with a 1200 series HPLC system (Agilent).

cancer cells = test: Rapid cancer cell death phenotype; assay type: cell-based; conditions: relative to TMZ
From the text: FIG. 8A-C. Rapid Cancer Cell Death Phenotype.

[2] = Blood-brain barrier permeability; conditions: mice; 25 mg/kg IV; 15 minutes
Experimental: Biodistribution and Toxicity Studies. […] Brain tissue and blood were collected from each mouse and immediately acidified to prevent prodrug degradation. The concentration of each compound in the serum (FIG. 4A) and brain (FIG. 4B) were quantified by LC-MS/MS.
CD-1 IGS mice were administered compound in 5% DMSO, 10% Tween-20, and 85% SPE-PCD in sterile water (30% w/v) at 25 mg/kg via lateral tail vein injection. Fifteen minutes post injection, mice were sacrificed and blood was collected by lacerating the right auricle with iris scissors. An 18 gauge angiocatheter was inserted through the left ventricle, and all residual circulatory volume was removed by perfusing 0.9% saline solution via an analog peristaltic pump. Blood samples were immediately centrifuged at 13,000 rcf for five minutes and the supernatant collected and acidified with 8.5% aqueous H3PO4. Brains were harvested from the cranial vault, acidified with 0.3% aqueous H3PO4 and flash frozen. Homogenized brain samples were centrifuged twice at 13,000 rcf for ten minutes and supernatant and tissue debris were separated. The resultant supernatant was analyzed, along with plasma, by LC-MS/MS to determine compound concentrations.

[3] = Hepatic metabolism: stability in mouse liver microsomes; assay type: in vitro ADME
Brain tissue binding = assay type: in vitro ADME; conditions: 10 uM, 1 h at 37 C in brain tissue homogenate
[4] = Syngeneic subcutaneous model; assay type: in vivo; conditions: C57BL/6 mice, 1×10^6 cells; 50 mg/kg IV 1×/day over 5 days from day 5
Experimental: FIG. 10A-B. Syngeneic Subcutaneous Model (A, B). TABZ and TMZ in vivo: C57BL/6 mice were inoculated with 1×10^6 cells and treated xl/day over 5 days with either vehicle, TMZ, or TABZ (via IV, 50 mg/kg, starting on day 5).

[5] = cited from earlier work

SMILES	Time to near peak threshold of cell death (U87 cells; treated once, viability every 24 hours)	O6-alkyl-2′-deoxyguanosine adducts (O6-Me-dG for TMZ, O6-Prop-dG for CPZ), GL261 [1]	Speed of cell death induction (cancer cells)	Increase in brain distribution relative to TMZ [2]	Time to induce cell death in culture (U87 cells; at 100 μM)	Stability (2 h, with MLM) ([3]; percentage remaining relative to t0, mouse liver microsomes, SEM, n ≥ 2)	Stability (2 h, no MLM) ([3]; percentage remaining, microsomes replaced with PBS)	Brain tissue binding, insoluble fraction, tissue homogenizer (Brain tissue binding)	Brain tissue binding, insoluble fraction, ultrasonication (Brain tissue binding)	Brain tissue binding, soluble fraction, tissue homogenizer (Brain tissue binding)	Brain tissue binding, soluble fraction, ultrasonication (Brain tissue binding)	Tumor growth [4]	Half-life in vivo (human pharmacokinetics) ([5]; human patients)	Cerebral spinal fluid concentration as percentage of plasma concentration ([5]; humans)
C#CCn1nnc2c(Cl)ncn2c1=O [CPZ, 8-chloro-3-(prop-2-yn-1-yl)imidazo[5,1-d][1,2,3,5]tetrazin-4(3H)-one]	≤ 72 h	no detection of O^6-Prop-dG adducts	induce cell death quickly relative to TMZ	> 10 fold	–	–	–	–	–	–	–	–	–	–
Cn1nnc2c(C(N)=O)ncn2c1=O [TMZ, temozolomide, reference compound]	–	clear dose-dependent increase	–	–	5 to 10 days	95 ± 1%	92 ± 0.2%	40 ± 5%	30 ± 3%	59 ± 5%	66 ± 3%	exacerbation of tumor growth	1.5 to 2 h	about 20%
